Measured values taken from US9974787B2, “Modified albumin microbubble” (National Taiwan University of Science and Technology, priority 2016, dated 2018).
Values joined by “and” are separate entries in the source; they are usually repeats but may differ in a detail not shown here. Identical values can stand only once. Blank lines part the entries; values can stand above or below the compound they belong to.

Experiments:
[1] = Transdermal penetration study of Mx released by Mx-COL-MBs (Franz diffusion cell); type: in vitro ADME, porcine; conditions: Mx 0.3 mg/ml; for Amount of skin penetration (cumulative Mx penetration amount): 18th hour; for Amount of total penetration: 18 hours; for Amount of skin absorption: after 18 hours
Protocol: Transdermal Penetration Study of Mx Released by Mx-COL-MBs
The procedures of the study included: interposing a piece of 3 mm-thick porcine ear skin between a donor cell and a receptor cell of the Franz diffusion cell at a temperature of 37±0.5° C. 1 ml of any one of the abovementioned 6 solutions was applied to the donor cell facing the stratum corneum (SC) side, enabling the MB, Mx, or Mx-COL-MB to penetrate the Parafilm on a bottom of the donor cell and reach the skin. Besides, the receptor cell facing the dermis side was filled with 12 ml of PBS at pH 7.4, accompanied with magnetic stirring at the rate of 600 rpm and 0.01% gentamicin to prevent bacterial degradation of the Mx during the penetration process. At the 0.5th hr, a 1-MHz ultrasound sonicator was positioned 3 mm from the top of the skin, and the skin was sonicated at a power density of 3 W/cm^2 for 1 min. At the time intervals of 0.5, 1, 2, 3, 4, 5, 6, 8, 12 and 18 hours, 1 ml of receptor solution sample filtered by 0.2-μm pores was extracted from the receptor cell to measure the Mx content in the receptor solution, with the receptor solution refilled each time with the same volume of PBS. After 18 hours, the porcine skin sample was washed and then homogenized with 1 ml of the receptor solution. The supernatant was centrifuged to acquire further supernatant to measure the absorbed amount of Mx in the porcine ear skin.

C57BL/6 mice = assay: Study of animal hair growth (skin luminosity of shaved back); type: in vivo; conditions: for number of mice with significantly lower skin luminosity: day 10, Mx 0.3 mg/ml topical; for hair growth rate: day 16, Mx 0.3 mg/ml
Protocol: Study of Animal Hair Growth
The study utilized 6-week-old C57BL/6 mice weighing 20-25 g, which were shaved at an area of about 10 cm^2 in the back at 8 weeks old, when all of the hair follicles were synchronized in the telogen phase. […] Among all groups, the US treatment was applied at 3 W/cm^2 for 1 min, and the concentration of Mx was 0.3 mg/ml (i.e. 0.5 ml/cm^2) in all groups. The change in skin luminosity of the shaved area was assessed using the Chroma Meter. The hair growth rate was calculated according to the following equation: Hair growth rate (%)=(L1−Ln)/L1×100%
where L1 is the luminosity index of the shaved area, and Ln is the luminosity index of the area at different time intervals.

[2] = Study of transdermal penetration depth (FITC); conditions: 0.1 mg FITC, retained 6 hr on porcine ear skin
Protocol: Study of Transdermal Penetration Depth
Each group contained 0.1 mg FITC (fluorescein isothiocyanate), and was uniformly loaded onto the porcine ear skin with an area of 4.5 cm^2 and a thickness of 3 mm, sonicated by the 1-MHz ultrasound sonicator successively at power density of 3 W/cm^2, with each sonication period of 1 min. After sonication, the FITC (and the MBs) retained on the porcine ear skin for 6 hr, and was then washed away.
FIG. 7A-7C are bright-field images, and FIG. 7D-7F are dark-field fluorescent images.

[3] = with ultrasound treatment 3 W/cm^2, 1 min
[4] = with US treatment 3 W/cm^2, 1 min

- Amount of skin penetration (cumulative Mx penetration amount) ([1]; without ultrasound treatment): 103.1 ± 0.5 µg/mL and 103.1 ± 0.51 µg/mL
- Amount of total penetration ([1]; without ultrasound treatment): 155.54 ± 10.05 µg/mL
- Amount of skin absorption ([1]; without ultrasound treatment): 52.42 ± 9.55 µg/mL
Compound: Nc1cc(N2CCCCC2)nc(N)[n+]1[O-] [Comparative example 4, Minoxidil]
- number of mice with significantly lower skin luminosity (C57BL/6 mice; without US treatment): 1
- hair growth rate (C57BL/6 mice; without US treatment): 45.5%

Compound: fluorescein isothiocyanate [Comparative example 7]
- penetration depth of FITC ([2]; with US treatment 1 MHz, 3 W/cm^2, 1 min): 405±23 μm

- Amount of skin penetration (cumulative Mx penetration amount) [1, 3]: 113.0 ± 6.0 µg/mL and 113.01 ± 5.95 µg/mL
- Amount of total penetration [1, 3]: 126.04 ± 7.52 µg/mL
- Amount of skin absorption [1, 3]: 33.02 ± 1.56 µg/mL
Compound: Nc1cc(N2CCCCC2)nc(N)[n+]1[O-] [Comparative example 8, Minoxidil]
- number of mice with significantly lower skin luminosity (C57BL/6 mice; [4]): 1
- hair growth rate (C57BL/6 mice; [4]): 64.5%

Compound: fluorescein isothiocyanate [Comparative example 6]
- penetration depth of FITC ([2]; without US treatment): 312±19 μm
